target: T1, NTCP (Homo sapiens, UniProt Q14973); assay: [3H]-TCA uptake assay (NTCP inhibition); assay type: cell-based; details: IC50, given as a range, marked * (asterisk not explained)
T1 sequence (Q14973 1-349): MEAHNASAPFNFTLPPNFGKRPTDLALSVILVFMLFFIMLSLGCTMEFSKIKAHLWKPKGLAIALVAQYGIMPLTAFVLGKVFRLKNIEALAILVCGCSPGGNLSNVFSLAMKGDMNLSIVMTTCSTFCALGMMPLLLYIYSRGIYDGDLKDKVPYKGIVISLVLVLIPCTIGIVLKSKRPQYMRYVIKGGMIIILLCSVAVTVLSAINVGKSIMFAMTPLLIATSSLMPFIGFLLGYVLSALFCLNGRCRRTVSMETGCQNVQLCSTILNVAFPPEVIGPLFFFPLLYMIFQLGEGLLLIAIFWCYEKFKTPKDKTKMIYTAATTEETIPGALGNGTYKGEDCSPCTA
Summary of the method: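 Read-out is liquid scintillation counting of Triton X-100 lysates after 15 min, 37° C uptake of 1 μM [3H]-taurocholate in Na+ Ringer's buffer (145 mM Na). Beforehand, PTH and HepG2-NTCP cells had 24 h in PMM for NTCP induction and 2 h of compound or DMSO treatment.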

| Compound | IC50 [nM] |
| --- | --- |
| CCC1NC(=O)C(C2OC(SCc3ccc(N4CCOCC4)cc3)CC2C)N(C)C(=O)C(C(C)C)N(C)C(=O)C(CC(C)C)N(C)C(=O)C(CC(C)C)N(C)C(=O)C(C)NC(=O)C(C)NC(=O)C(CC(C)C)N(C)C(=O)C(C(C)C)NC(=O)C(CC(C)C)N(C)C(=O)CN(C)C1=O (stereo not shown) [Compound 99A-s] | 1000 to 100000 |
| CCC1NC(=O)C(C2OC(SCc3ccc4c(c3)OCO4)CC2C)N(C)C(=O)C(C(C)C)N(C)C(=O)C(CC(C)C)N(C)C(=O)C(CC(C)C)N(C)C(=O)C(C)NC(=O)C(C)NC(=O)C(CC(C)C)N(C)C(=O)C(C(C)C)NC(=O)C(CC(C)C)N(C)C(=O)CN(C)C1=O (stereo not shown) [Compound 100A-s] | 1000 to 100000 |
| CCC1NC(=O)C(C2OC(SCc3cc(F)c(Cl)cc3Cl)CC2C)N(C)C(=O)C(C(C)C)N(C)C(=O)C(CC(C)C)N(C)C(=O)C(CC(C)C)N(C)C(=O)C(C)NC(=O)C(C)NC(=O)C(CC(C)C)N(C)C(=O)C(C(C)C)NC(=O)C(CC(C)C)N(C)C(=O)CN(C)C1=O (stereo not shown) [Compound 101A-s] | 1000 to 100000 |
| CCC1NC(=O)C(C2OC(SC(C)c3ccc(Cl)cc3)CC2C)N(C)C(=O)C(C(C)C)N(C)C(=O)C(CC(C)C)N(C)C(=O)C(CC(C)C)N(C)C(=O)C(C)NC(=O)C(C)NC(=O)C(CC(C)C)N(C)C(=O)C(C(C)C)NC(=O)C(CC(C)C)N(C)C(=O)CN(C)C1=O (stereo not shown) [Compound 102-s] | 1000 to 100000 |
| CCC1NC(=O)C(C2OC(OC(C)c3ccc(Cl)cc3)CC2C)N(C)C(=O)C(C(C)C)N(C)C(=O)C(CC(C)C)N(C)C(=O)C(CC(C)C)N(C)C(=O)C(C)NC(=O)C(C)NC(=O)C(CC(C)C)N(C)C(=O)C(C(C)C)NC(=O)C(CC(C)C)N(C)C(=O)CN(C)C1=O (stereo not shown) [Compound 102] | 1000 to 100000 |
| CCC1NC(=O)C(C2OC(SCc3cc(Cl)c(F)cc3Cl)CC2C)N(C)C(=O)C(C(C)C)N(C)C(=O)C(CC(C)C)N(C)C(=O)C(CC(C)C)N(C)C(=O)C(C)NC(=O)C(C)NC(=O)C(CC(C)C)N(C)C(=O)C(C(C)C)NC(=O)C(CC(C)C)N(C)C(=O)CN(C)C1=O (stereo not shown) [Compound 103-s] | 1000 to 100000 |
| CCC1NC(=O)C(C2OC(OCc3cc(Cl)c(F)cc3Cl)CC2C)N(C)C(=O)C(C(C)C)N(C)C(=O)C(CC(C)C)N(C)C(=O)C(CC(C)C)N(C)C(=O)C(C)NC(=O)C(C)NC(=O)C(CC(C)C)N(C)C(=O)C(C(C)C)NC(=O)C(CC(C)C)N(C)C(=O)CN(C)C1=O (stereo not shown) [Compound 103] | 1000 to 100000 |
| CCC1NC(=O)C(C2OC(SCc3cc(Cl)c(Cl)cc3Cl)CC2C)N(C)C(=O)C(C(C)C)N(C)C(=O)C(CC(C)C)N(C)C(=O)C(CC(C)C)N(C)C(=O)C(C)NC(=O)C(C)NC(=O)C(CC(C)C)N(C)C(=O)C(C(C)C)NC(=O)C(CC(C)C)N(C)C(=O)CN(C)C1=O (stereo not shown) [Compound 104-s] | 1000 to 100000 |
| CCC1NC(=O)C(C2OC(OCc3cc(Cl)c(Cl)cc3Cl)CC2C)N(C)C(=O)C(C(C)C)N(C)C(=O)C(CC(C)C)N(C)C(=O)C(CC(C)C)N(C)C(=O)C(C)NC(=O)C(C)NC(=O)C(CC(C)C)N(C)C(=O)C(C(C)C)NC(=O)C(CC(C)C)N(C)C(=O)CN(C)C1=O (stereo not shown) [Compound 104] | 1000 to 100000 |
| CCC1NC(=O)C(C2OC(SCc3cccc(OCC4CCOCC4)c3)CC2C)N(C)C(=O)C(C(C)C)N(C)C(=O)C(CC(C)C)N(C)C(=O)C(CC(C)C)N(C)C(=O)C(C)NC(=O)C(C)NC(=O)C(CC(C)C)N(C)C(=O)C(C(C)C)NC(=O)C(CC(C)C)N(C)C(=O)CN(C)C1=O (stereo not shown) [Compound 105-s] | 1000 to 100000 |
| CCC1NC(=O)C(C2OC(OCc3cccc(OCC4CCOCC4)c3)CC2C)N(C)C(=O)C(C(C)C)N(C)C(=O)C(CC(C)C)N(C)C(=O)C(CC(C)C)N(C)C(=O)C(C)NC(=O)C(C)NC(=O)C(CC(C)C)N(C)C(=O)C(C(C)C)NC(=O)C(CC(C)C)N(C)C(=O)CN(C)C1=O (stereo not shown) [Compound 105] | 1000 to 100000 |

same assay, conditions: IC50, given as a range; assay not given

| Compound | IC50 [nM] |
| --- | --- |
| CCC1NC(=O)C(C2OC(OCc3ccc(N4CCOCC4)cc3)CC2C)N(C)C(=O)C(C(C)C)N(C)C(=O)C(CC(C)C)N(C)C(=O)C(CC(C)C)N(C)C(=O)C(C)NC(=O)C(C)NC(=O)C(CC(C)C)N(C)C(=O)C(C(C)C)NC(=O)C(CC(C)C)N(C)C(=O)CN(C)C1=O [Compound 99A, [2-((2R,3R)-3-methyl-5-(4-morpholinobenzyloxy)tetrahydrofuran-2-yl)-2-(methylamino)acetic acid]^1-cyclosporin A] | 1000 to 10000 |

same assay, conditions: given as a range; assay not given

| Compound | IC50 [nM] |
| --- | --- |
| CCC1NC(=O)C(C2OC(OCc3ccc4c(c3)OCO4)CC2C)N(C)C(=O)C(C(C)C)N(C)C(=O)C(CC(C)C)N(C)C(=O)C(CC(C)C)N(C)C(=O)C(C)NC(=O)C(C)NC(=O)C(CC(C)C)N(C)C(=O)C(C(C)C)NC(=O)C(CC(C)C)N(C)C(=O)CN(C)C1=O [Compound 100A, [2-((2R,3R)-5-(benzo[d][1,3]dioxol-5-ylmethoxy)-3-methyltetrahydrofuran-2-yl)-2-(methylamino)acetic acid]^1-cyclosporin A] | 1 to 1000 |
